Measured values reported in ChEMBL document CHEMBL3352528, “Ejection of structural zinc leads to inhibition of γ-butyrobetaine hydroxylase” (Bioorg Med Chem Lett, 2014).
Active and inactive are the calls of the source. The rule behind the calls is not given here.

Columns and labels:
[1] = molecular target: T1, Gamma-butyrobetaine dioxygenase (Homo sapiens, UniProt O75936); assay: Binding affinity to human BBOX in presence of Fe(II) by tryptophan fluorescence quenching binding assay
T1 sequence (O75936 whole entry): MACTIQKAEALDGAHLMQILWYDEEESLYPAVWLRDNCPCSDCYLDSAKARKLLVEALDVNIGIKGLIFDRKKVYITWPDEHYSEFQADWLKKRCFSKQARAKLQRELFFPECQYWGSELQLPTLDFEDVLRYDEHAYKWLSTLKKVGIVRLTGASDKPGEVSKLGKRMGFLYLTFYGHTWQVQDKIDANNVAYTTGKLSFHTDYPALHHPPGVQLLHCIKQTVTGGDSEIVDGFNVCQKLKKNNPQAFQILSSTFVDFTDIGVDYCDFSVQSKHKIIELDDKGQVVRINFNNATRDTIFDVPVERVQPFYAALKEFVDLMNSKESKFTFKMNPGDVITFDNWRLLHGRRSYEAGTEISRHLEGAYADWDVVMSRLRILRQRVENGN

[2] = molecular target: T1, Gamma-butyrobetaine dioxygenase; assay: Binding affinity to human BBOX by tryptophan fluorescence quenching binding assay
[3] = molecular target: T1, Gamma-butyrobetaine dioxygenase; assay: Inhibition of human BBOX pre-incubated for 15 mins using TBS-protected fluorescein probe and Fe (II) (Fe(NH4)2(SO4)2 salt by fluoride release assay
[4] = molecular target: T2, Gamma-butyrobetaine dioxygenase (Homo sapiens) (UniProt O75936); assay: Binding affinity to human BBOX assessed as quenching of intrinsic tryptophan fluorescence at 50 to 200 uM in absence of Fe(II)
T2 sequence (whole entry): T1 sequence (O75936 whole entry)

[5] = molecular target: T1, Gamma-butyrobetaine dioxygenase; assay: Inhibition of human BBOX pre-incubated for 10 mins using TBS-protected fluorescein probe and Fe (II) (Fe(NH4)2(SO4)2 salt by fluoride release assay
[6] = molecular target: T1, Gamma-butyrobetaine dioxygenase; assay: Inhibition of human BBOX pre-incubated for 25 mins using TBS-protected fluorescein probe and Fe (II) (Fe(NH4)2(SO4)2 salt by fluoride release assay
[7] = molecular target: T1, Gamma-butyrobetaine dioxygenase; assay: Inhibition of human BBOX pre-incubated for 1 min using TBS-protected fluorescein probe and Fe (II) (Fe(NH4)2(SO4)2 salt by fluoride release assay
[8] = molecular target: T1, Gamma-butyrobetaine dioxygenase; assay: Inhibition of human BBOX pre-incubated for 20 mins using TBS-protected fluorescein probe and Fe (II) (Fe(NH4)2(SO4)2 salt by fluoride release assay
[9] = molecular target: T2, Gamma-butyrobetaine dioxygenase (Homo sapiens); assay: Induction of Zn(II) from human BBOX assessed as zinc release by fluorescence based assay

Compound | Kd [1] [µM] | Kd [2] [µM] | IC50 [3] [µM] | Activity [4] | IC50 [5] [µM] | IC50 [6] [µM] | IC50 [7] [µM] | IC50 [8] [µM] | Activity [9]
CN(C)C(=S)SSC(=S)N(C)C [THIRAM] | 35 | 59 | 14 | Active | 34 | 5.8 | 56 | 7.9 | –
c1ccc([Se][Se]c2ccccc2)cc1 | > 200 | > 200 | 49 | Active | 47 | 39 | 55 | 42 | –
O=[Se](O)c1ccccc1 | 12 | 7.6 | 6.3 | Active | 11 | 2.6 | 35 | 4.7 | –
Cl[Se]c1ccccc1 | 7.5 | 9.4 | 3.2 | Active | 4 | 2.2 | 5.1 | 2.9 | –
O=c1c2ccccc2[se]n1-c1ccccc1 [EBSELEN] | 4.6 | 3.6 | 0.76 | Active | 0.71 | 0.72 | 0.69 | 0.83 | –
O[Se]c1ccccc1 | > 200 | > 200 | 26 | Active | 35 | 17 | 54 | 19 | –
Br[Se]c1ccccc1 | 11 | 13 | 3.4 | Active | 3.4 | 2.3 | 7.1 | 3 | –
O=C(O)CNC(=O)c1nc(Cl)c2ccccc2c1O | 13 | 122 | – | inactive | 33 | – | 36 | 32 | inactive
